Reference: ChEMBL document CHEMBL6182948 (J Med Chem, 2025)

Experiments:
[1] = molecular target: Cytochrome P450 3A4 (Homo sapiens, UniProt P08684); experiment: Inhibition of CYP3A4 in human liver microsome pre-incubated with compound for 5 mins followed NADPH addition and measured after 5 mins by LC-MS/MS analysis; type: ADME, microsomes
[2] = system: A549; experiment: Antiproliferative against human A549 cells assessed as inhibition of cell viability incubated for 48 hrs by CCK-8 assay; type: functional, cell-based; conditions: A549, 48 h
[3] = molecular target: CYP3A4 (Homo sapiens, UniProt P08684); experiment: Inhibition of CYP3A4 in human liver microsome at 10 uM pre-incubated with compound for 5 mins followed NADPH addition and measured after 5 mins by LC-MS/MS analysis relative to control; type: ADME; conditions: liver microsomes, time 10 min
[4] = molecular target: CYP2C9 (Homo sapiens, UniProt P11712); experiment: Inhibition of CYP2C9 in human liver microsome at 10 uM pre-incubated with compound for 5 mins followed NADPH addition and measured after 10 mins by LC-MS/MS analysis relative to control; type: ADME; conditions: liver microsomes, time 15 min
[5] = Stability in human plasma assessed as compound remaining at 100 uM measured after 120 mins by LC-MS/MS analysis; type: ADME, cell-free; conditions: read-out: Stability
[6] = species: Homo sapiens; experiment: Selectivity index, ratio of IC50 for human recombinant CYP1A2 to IC50 for human recombinant CYP1B1 using 7-ethoxyresorufin as substrate
[7] = Stability in human plasma assessed as compound remaining at 100 uM measured after 5 mins by LC-MS/MS analysis; type: ADME, cell-free; conditions: read-out: Stability
[8] = system: A549/TR; experiment: Reversal of drug resistance in human A549/Taxol cells assessed as increase in paclitaxel-induced cytotoxicity incubated for 48 hrs by CCK-8 assay; type: functional, cell-based; conditions: dose 2.5-10 µM
[9] = molecular target: CYP2C19 (Homo sapiens, UniProt P33261); experiment: Inhibition of CYP2C19 in human liver microsome at 10 uM pre-incubated with compound for 5 mins followed NADPH addition and measured after 30 mins by LC-MS/MS analysis relative to control; type: ADME; conditions: liver microsomes, time 35 min
[10] = Metabolic stability in liver microsomes (unknown origin) assessed as compound remaining at 0.5 mg/ml measured after 30 mins in presence of NADPH regenerating system by LC-MS/MS analysis relative to control; type: ADME, Microsome; conditions: read-out: Stability
[11] = Stability in human plasma assessed as compound remaining at 100 uM measured after 15 mins by LC-MS/MS analysis; type: ADME, cell-free; conditions: read-out: Stability
[12] = Cytotoxicity against human BEAS-2B cells assessed as inhibition of cell viability incubated for 48 hrs by CCK-8 assay; type: toxicity, cell-based
[13] = molecular target: CYP2D6 (Homo sapiens, UniProt P10635); experiment: Inhibition of CYP2D6 in human liver microsome at 10 uM pre-incubated with compound for 5 mins followed NADPH addition and measured after 10 mins by LC-MS/MS analysis relative to control; type: ADME; conditions: liver microsomes, time 15 min
[14] = molecular target: T1, Cytochrome P450 1A2 (Homo sapiens, UniProt P05177); experiment: Inhibition of human recombinant CYP1A2 using 7-ethoxyresorufin as substrate incubated under dark condition for 45 mins in presence of NADPH by EROD fluorescence assay; type: ADME
T1 sequence (P05177 whole entry): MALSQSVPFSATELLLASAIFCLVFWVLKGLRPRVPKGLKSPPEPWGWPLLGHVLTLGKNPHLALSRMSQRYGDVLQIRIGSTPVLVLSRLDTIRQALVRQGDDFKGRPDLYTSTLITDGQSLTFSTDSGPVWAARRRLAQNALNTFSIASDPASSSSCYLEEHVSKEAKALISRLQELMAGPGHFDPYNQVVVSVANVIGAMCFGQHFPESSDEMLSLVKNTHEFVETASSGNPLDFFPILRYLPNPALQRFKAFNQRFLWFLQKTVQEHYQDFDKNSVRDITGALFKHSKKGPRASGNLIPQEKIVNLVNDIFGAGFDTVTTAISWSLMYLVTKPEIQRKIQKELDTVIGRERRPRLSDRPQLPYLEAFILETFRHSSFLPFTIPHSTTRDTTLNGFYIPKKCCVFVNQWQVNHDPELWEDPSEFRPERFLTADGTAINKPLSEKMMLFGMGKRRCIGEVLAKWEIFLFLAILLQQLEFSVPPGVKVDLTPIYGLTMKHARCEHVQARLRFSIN

[15] = molecular target: T2, CYP2C8 (Homo sapiens, UniProt P10632); experiment: Inhibition of CYP2C8 in human liver microsome at 10 uM pre-incubated with compound for 5 mins followed NADPH addition and measured after 5 mins by LC-MS/MS analysis relative to control; type: ADME; conditions: liver microsomes, time 10 min
T2 sequence (P10632 whole entry): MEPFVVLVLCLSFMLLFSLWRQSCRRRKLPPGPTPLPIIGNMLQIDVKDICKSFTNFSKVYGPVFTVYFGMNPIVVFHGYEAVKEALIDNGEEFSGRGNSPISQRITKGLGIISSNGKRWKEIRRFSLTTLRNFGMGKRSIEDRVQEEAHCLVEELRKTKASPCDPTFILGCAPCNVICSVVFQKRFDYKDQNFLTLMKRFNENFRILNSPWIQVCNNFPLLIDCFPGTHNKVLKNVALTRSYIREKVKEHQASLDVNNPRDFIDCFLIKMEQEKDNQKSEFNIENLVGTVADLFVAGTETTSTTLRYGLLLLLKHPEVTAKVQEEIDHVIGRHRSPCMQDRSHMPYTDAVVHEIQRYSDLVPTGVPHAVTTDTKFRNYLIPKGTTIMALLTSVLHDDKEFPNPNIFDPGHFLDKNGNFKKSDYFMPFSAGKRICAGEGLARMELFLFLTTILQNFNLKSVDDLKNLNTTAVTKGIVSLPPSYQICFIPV

[16] = species: Homo sapiens; experiment: Selectivity index, ratio of IC50 for human recombinant CYP1A1 to IC50 for human recombinant CYP1B1 using 7-ethoxyresorufin as substrate
[17] = Stability in human plasma assessed as half life at 100 uM measured up to 120 mins by LC-MS/MS analysis; type: ADME, cell-free
[18] = Metabolic stability in liver microsomes (unknown origin) assessed as compound remaining at 0.5 mg/ml measured after 60 mins in presence of NADPH regenerating system by LC-MS/MS analysis relative to control; type: ADME, Microsome; conditions: read-out: Stability
[19] = Cytotoxicity against HUVEC assessed as inhibition of cell viability incubated for 48 hrs by CellTiter Glo assay; type: toxicity, cell-based; conditions: human, HUVEC cells
[20] = Metabolic stability in liver microsomes (unknown origin) assessed as compound remaining at 0.5 mg/ml measured after 5 mins in presence of NADPH regenerating system by LC-MS/MS analysis relative to control; type: ADME, Microsome; conditions: read-out: Stability
[21] = Stability in human plasma assessed as compound remaining at 100 uM measured after 30 mins by LC-MS/MS analysis; type: ADME, cell-free; conditions: read-out: Stability
[22] = Stability in human plasma assessed as compound remaining at 100 uM measured after 60 mins by LC-MS/MS analysis; type: ADME, cell-free; conditions: read-out: Stability
[23] = Metabolic stability in liver microsomes (unknown origin) assessed as compound remaining at 0.5 mg/ml measured after 15 mins in presence of NADPH regenerating system by LC-MS/MS analysis relative to control; type: ADME, Microsome; conditions: read-out: Stability
[24] = Metabolic stability in liver microsomes (unknown origin) assessed as compound remaining at 0.5 mg/ml measured immediately in presence of NADPH regenerating system by LC-MS/MS analysis relative to control; type: ADME, Microsome; conditions: read-out: Stability
[25] = Stability in human plasma assessed as compound remaining at 100 uM measured immediately by LC-MS/MS analysis; type: ADME, cell-free; conditions: read-out: Stability

Sequence of CYP2C9 (P11712 whole entry): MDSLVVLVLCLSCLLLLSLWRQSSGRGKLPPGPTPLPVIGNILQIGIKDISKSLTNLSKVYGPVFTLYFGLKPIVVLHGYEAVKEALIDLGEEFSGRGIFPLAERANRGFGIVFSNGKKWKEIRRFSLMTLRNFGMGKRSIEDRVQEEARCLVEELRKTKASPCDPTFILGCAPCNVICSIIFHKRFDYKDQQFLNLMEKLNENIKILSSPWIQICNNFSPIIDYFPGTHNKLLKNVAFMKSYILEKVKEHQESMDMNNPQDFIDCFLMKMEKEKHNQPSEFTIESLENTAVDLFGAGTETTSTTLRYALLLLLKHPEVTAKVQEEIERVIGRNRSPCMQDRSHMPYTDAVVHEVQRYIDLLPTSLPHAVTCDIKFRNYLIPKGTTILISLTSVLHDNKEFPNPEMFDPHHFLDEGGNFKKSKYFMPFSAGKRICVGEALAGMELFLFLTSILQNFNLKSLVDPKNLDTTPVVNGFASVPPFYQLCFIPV
Sequence of CYP3A4 (P08684 whole entry): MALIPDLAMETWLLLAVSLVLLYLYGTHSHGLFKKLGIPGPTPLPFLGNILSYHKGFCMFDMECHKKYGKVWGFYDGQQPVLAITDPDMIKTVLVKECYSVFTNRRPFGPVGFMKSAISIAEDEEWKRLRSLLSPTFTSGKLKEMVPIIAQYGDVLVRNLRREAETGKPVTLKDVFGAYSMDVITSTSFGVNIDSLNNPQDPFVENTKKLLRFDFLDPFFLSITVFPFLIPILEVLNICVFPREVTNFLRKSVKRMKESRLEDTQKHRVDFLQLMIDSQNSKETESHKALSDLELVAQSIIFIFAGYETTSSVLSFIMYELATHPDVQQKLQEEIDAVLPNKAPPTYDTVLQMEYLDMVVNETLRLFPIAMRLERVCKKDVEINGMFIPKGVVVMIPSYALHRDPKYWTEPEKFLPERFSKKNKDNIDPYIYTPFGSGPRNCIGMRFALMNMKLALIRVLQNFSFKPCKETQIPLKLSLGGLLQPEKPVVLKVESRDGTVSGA
Sequence of Cytochrome P450 3A4 (P08684 whole entry): as above
Sequence of CYP2D6 (P10635 whole entry): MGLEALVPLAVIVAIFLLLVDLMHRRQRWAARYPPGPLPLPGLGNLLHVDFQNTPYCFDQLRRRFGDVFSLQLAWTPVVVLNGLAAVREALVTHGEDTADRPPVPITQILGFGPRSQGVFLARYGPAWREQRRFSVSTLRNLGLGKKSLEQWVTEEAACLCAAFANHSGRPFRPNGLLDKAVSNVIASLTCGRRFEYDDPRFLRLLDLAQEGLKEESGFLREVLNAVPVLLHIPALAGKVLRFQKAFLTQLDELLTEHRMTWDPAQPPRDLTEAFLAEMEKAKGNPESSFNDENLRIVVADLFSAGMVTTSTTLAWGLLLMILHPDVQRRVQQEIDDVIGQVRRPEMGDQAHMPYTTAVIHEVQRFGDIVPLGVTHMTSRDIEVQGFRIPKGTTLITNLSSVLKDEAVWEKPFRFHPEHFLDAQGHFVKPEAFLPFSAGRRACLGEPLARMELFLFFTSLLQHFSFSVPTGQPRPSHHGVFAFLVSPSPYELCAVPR
Sequence of CYP2C19 (P33261 whole entry): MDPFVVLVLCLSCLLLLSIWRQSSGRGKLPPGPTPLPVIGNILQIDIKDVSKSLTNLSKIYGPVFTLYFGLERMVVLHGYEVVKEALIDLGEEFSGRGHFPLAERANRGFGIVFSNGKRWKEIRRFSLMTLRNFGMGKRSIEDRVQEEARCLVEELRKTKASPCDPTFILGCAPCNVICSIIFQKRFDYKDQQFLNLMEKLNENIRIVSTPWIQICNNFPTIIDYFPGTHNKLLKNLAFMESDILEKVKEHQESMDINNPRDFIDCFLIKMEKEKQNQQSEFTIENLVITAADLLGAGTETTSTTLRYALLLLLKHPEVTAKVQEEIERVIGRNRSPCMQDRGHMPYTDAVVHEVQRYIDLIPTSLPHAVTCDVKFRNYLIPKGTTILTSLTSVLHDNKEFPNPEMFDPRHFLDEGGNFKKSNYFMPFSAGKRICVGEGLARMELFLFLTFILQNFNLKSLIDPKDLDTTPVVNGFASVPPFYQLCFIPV

O=C(Nc1cc(Cl)cc(Cl)c1)c1nc(-c2cccc(Cl)c2)cs1
IC50 [1]: > 10 µM
IC50 [2]: 7.5 µM
inhibition at 5 min, 10 µM [3]: 0.94%
inhibition at 10 min, 10 µM [4]: 2.21%
remaining at 2 h, 100 µM [5]: 93.9%
Ratio IC50 [6]: > 54000
remaining at 5 min, 100 µM [7]: 87.1%
Activity [8]: Dose-dependent-effect
inhibition at 0.5 h, 10 µM [9]: 7.73%
remaining at 0.5 h [10]: 98.2%
remaining at 0.25 h, 100 µM [11]: 104%
IC50 at 48 h [12]: > 20 µM
inhibition at 10 min, 10 µM [13]: 0%
IC50 [14]: > 80 µM
inhibition at 5 min, 10 µM [15]: 15.7%
Ratio IC50 [16]: > 67500
half-life at 100 µM [17]: > 2 h
remaining at 1 h [18]: 96.6%
IC50 at 48 h [19]: > 40 µM
remaining at 5 min [20]: 99.5%
remaining at 0.5 h, 100 µM [21]: 106%
remaining at 1 h, 100 µM [22]: 96.1%
remaining at 0.25 h [23]: 102%
remaining at 0 min [24]: 100%
remaining at 0 min, 100 µM [25]: 100%

N#Cc1ccc(-c2csc(C(=O)Nc3ccc(C(F)(F)F)cc3)n2)cc1
IC50 [1]: 2.97 µM
IC50 [2]: > 20 µM
inhibition at 5 min, 10 µM [3]: 77.1%
inhibition at 10 min, 10 µM [4]: 17.4%
remaining at 2 h, 100 µM [5]: 93.4%
Ratio IC50 [6]: > 200000
remaining at 5 min, 100 µM [7]: 99%
Activity [8]: Dose-dependent-effect
inhibition at 0.5 h, 10 µM [9]: 60.8%
remaining at 0.5 h [10]: 72.5%
remaining at 0.25 h, 100 µM [11]: 94.2%
IC50 at 48 h [12]: > 20 µM
inhibition at 10 min, 10 µM [13]: 23.1%
IC50 [14]: > 10 µM
inhibition at 5 min, 10 µM [15]: 33.6%
Ratio IC50 [16]: 1550
half-life at 100 µM [17]: > 2 h
remaining at 1 h [18]: 54.3%
IC50 at 48 h [19]: > 40 µM
remaining at 5 min [20]: 93.1%
remaining at 0.5 h, 100 µM [21]: 110%
remaining at 1 h, 100 µM [22]: 100%
remaining at 0.25 h [23]: 80.4%
remaining at 0 min [24]: 100%
remaining at 0 min, 100 µM [25]: 100%

N#Cc1ccc(-c2csc(C(=O)Nc3cc(Cl)cc(Cl)c3)n2)cc1
IC50 [1]: 1.55 µM
IC50 [2]: > 20 µM
inhibition at 5 min, 10 µM [3]: 86.6%
inhibition at 10 min, 10 µM [4]: 2.21%
remaining at 2 h, 100 µM [5]: 103%
Ratio IC50 [6]: > 56400
remaining at 5 min, 100 µM [7]: 106%
Activity [8]: Dose-dependent-effect; Compound Showed Robust Reversal Activity
inhibition at 0.5 h, 10 µM [9]: 1.45%
remaining at 0.5 h [10]: 102%
remaining at 0.25 h, 100 µM [11]: 102%
IC50 at 48 h [12]: > 20 µM
inhibition at 10 min, 10 µM [13]: 0%
IC50 [14]: > 100 µM
inhibition at 5 min, 10 µM [15]: 0%
Ratio IC50 [16]: > 56400
half-life at 100 µM [17]: > 2 h
remaining at 1 h [18]: 97.1%
IC50 at 48 h [19]: > 40 µM
remaining at 5 min [20]: 93.8%
remaining at 0.5 h, 100 µM [21]: 116%
remaining at 1 h, 100 µM [22]: 114%
remaining at 0.25 h [23]: 101%
remaining at 0 min [24]: 100%
remaining at 0 min, 100 µM [25]: 100%
